The values that follow come from US7074789B2, “Kinase inhibitors” (Amgen Inc., priority 1999, dated 2006).

Each structure is given as a SMILES string.

What all share (assay type): biochemical
In one experiment the target is T1, Lck (Homo sapiens, UniProt P06239).
T1 construct: Kinases are expressed as either kinase domains or full length constructs; made in house
The experiment is described as follows: Kinase inhibition assay (33P transfer), Lck. The note with it: Table 3; read-out: Lck-1. The procedure, abridged: (§1)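 Liquid scintillation counting of 33P on plate-bound synthetic substrates gives kinase activity. Plates are washed in 0.5% phosphoric acid first; kinases are tagged recombinant proteins from E. coli or baculovirus-infected High Five cells.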

A further experiment addresses T2, Lyn (Homo sapiens, UniProt P07948).
T2 construct: Kinases are expressed as either kinase domains or full length constructs; made in house
Nature of the experiment: Kinase inhibition assay (33P transfer), Lyn. The note with it: Table 6, Lyn-1 kinase inhibition class. In a few lines:
(§2)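 Using immobilised substrate copolymers (poly(Glu,Tyr) 4:1; poly(Arg,Ser) 3:1) and [33P]ATP, purified fusion kinases were allowed to react; plates were then rinsed in 0.5% phosphoric acid and counted in a scintillation detector. Half-maximal inhibition of label transfer defines IC50.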

For a further experiment, the target named is T3, Src (Homo sapiens, UniProt P12931).
T3 construct: Kinases are expressed as either kinase domains or full length constructs; made in house
Nature of the experiment: Kinase inhibition assay (33P transfer), Src. The note with it: Table 6, Src-1 kinase inhibition class. In a few lines: as §2

In another experiment the target is T4, Zap-70 (Homo sapiens, UniProt P43403).
T4 construct: Kinases are expressed as either kinase domains or full length constructs; made in house
T4 sequence (P43403 1-619): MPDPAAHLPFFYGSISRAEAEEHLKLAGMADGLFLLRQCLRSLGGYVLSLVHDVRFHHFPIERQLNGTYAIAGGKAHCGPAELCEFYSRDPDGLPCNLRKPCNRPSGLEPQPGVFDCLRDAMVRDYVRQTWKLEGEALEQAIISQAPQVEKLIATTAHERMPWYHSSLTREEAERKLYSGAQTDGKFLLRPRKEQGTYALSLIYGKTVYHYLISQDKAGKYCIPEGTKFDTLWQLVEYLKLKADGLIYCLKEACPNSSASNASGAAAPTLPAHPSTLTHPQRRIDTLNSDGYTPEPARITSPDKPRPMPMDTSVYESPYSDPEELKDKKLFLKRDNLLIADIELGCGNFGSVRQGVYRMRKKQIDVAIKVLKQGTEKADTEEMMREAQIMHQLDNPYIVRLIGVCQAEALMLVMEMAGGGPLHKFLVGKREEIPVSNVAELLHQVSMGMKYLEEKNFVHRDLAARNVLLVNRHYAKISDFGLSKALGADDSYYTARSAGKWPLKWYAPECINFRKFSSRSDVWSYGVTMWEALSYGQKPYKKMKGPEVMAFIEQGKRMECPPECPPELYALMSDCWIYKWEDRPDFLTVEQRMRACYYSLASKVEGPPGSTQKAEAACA
The experiment is described as follows: Kinase inhibition assay (33P transfer), Zap-70. The settings on record: Table 3; read-out: Zap-1. In a few lines: as §1

The next experiment has as its target T5, EGFR (Homo sapiens, UniProt P00533).
T5 construct: Kinases are expressed as either kinase domains or full length constructs; made in house
The experiment is described as follows: Kinase inhibition assay (33P transfer), EGFR. The settings on record: Table 2, kinase inhibition class; read-out: EGFR-1. The procedure, abridged: as §2

In another experiment the target is T6, Tek (Homo sapiens, UniProt Q02763).
T6 construct: Kinases are expressed as either kinase domains or full length constructs; made in house
T6 sequence (Q02763 23-1124, species assumed): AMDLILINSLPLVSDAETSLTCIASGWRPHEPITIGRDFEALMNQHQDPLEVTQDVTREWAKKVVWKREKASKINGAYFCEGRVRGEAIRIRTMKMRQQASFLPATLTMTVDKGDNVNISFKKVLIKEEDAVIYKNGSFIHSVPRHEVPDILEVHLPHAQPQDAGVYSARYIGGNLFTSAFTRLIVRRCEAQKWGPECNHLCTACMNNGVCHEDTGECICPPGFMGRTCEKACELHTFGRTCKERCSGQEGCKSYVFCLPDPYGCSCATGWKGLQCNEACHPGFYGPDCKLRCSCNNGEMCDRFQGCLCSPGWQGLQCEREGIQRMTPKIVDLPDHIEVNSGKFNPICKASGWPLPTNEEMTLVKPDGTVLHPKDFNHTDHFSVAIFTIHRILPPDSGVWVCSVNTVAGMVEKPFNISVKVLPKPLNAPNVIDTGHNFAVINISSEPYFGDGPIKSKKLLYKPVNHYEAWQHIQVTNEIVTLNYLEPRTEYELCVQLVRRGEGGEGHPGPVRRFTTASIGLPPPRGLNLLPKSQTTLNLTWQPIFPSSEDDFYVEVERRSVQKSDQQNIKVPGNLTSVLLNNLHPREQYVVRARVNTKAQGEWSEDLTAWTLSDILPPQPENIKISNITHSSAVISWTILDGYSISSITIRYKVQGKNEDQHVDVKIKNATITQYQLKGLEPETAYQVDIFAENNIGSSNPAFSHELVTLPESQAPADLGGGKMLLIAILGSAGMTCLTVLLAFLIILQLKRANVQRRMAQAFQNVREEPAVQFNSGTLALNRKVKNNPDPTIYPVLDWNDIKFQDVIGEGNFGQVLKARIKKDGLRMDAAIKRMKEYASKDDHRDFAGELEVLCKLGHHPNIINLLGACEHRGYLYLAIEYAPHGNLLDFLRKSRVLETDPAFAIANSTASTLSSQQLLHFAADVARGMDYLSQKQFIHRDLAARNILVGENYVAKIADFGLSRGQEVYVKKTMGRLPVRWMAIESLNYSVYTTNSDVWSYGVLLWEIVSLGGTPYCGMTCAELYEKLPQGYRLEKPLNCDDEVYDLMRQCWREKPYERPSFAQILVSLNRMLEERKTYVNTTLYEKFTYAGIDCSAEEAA
Nature of the experiment: Kinase inhibition assay (33P transfer), Tek. The settings on record: read-out: Tek-1. The procedure, abridged: as §2

The target of a further experiment is T7, EPHB4 (Homo sapiens, UniProt P54760).
T7 construct: Kinases are expressed as either kinase domains or full length constructs; made in house
T7 sequence (P54760 16-987): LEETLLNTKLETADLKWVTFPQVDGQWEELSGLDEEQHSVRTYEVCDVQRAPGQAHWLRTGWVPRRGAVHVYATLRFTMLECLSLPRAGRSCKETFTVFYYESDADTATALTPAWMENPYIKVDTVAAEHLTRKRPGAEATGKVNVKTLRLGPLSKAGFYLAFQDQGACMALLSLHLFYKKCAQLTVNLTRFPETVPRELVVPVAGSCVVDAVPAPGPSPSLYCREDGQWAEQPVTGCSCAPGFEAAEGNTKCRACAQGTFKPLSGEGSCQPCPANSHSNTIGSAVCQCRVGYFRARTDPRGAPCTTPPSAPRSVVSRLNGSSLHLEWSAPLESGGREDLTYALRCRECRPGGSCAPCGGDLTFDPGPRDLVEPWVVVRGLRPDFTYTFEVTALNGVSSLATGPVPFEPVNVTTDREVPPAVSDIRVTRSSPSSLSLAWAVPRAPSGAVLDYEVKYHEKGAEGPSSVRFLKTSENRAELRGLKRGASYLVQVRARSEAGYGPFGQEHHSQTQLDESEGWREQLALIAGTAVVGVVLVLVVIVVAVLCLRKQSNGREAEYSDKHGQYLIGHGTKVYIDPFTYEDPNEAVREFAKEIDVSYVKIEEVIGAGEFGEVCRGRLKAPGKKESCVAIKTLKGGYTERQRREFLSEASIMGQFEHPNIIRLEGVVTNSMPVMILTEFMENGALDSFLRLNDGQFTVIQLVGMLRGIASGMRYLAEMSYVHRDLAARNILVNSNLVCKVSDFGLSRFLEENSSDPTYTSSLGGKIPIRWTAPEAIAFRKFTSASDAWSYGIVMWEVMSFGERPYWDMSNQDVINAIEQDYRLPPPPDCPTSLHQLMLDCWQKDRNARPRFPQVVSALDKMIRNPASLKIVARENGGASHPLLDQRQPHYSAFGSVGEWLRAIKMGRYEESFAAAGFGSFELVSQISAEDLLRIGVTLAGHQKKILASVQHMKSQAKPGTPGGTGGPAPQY
The experiment is described as follows: Kinase inhibition assay (33P transfer), EPHB4. The note with it: read-out: EPHB4-1.

A further experiment has as its target T8, Hck-1 (Homo sapiens, UniProt P08631).
T8 construct: Kinases are expressed as either kinase domains or full length constructs; made in house
Nature of the experiment: Kinase inhibition assay (33P transfer), Hck. The settings on record: Table 6, Hck-1 kinase inhibition class.

The target of another experiment is T9, Ret-1 (Homo sapiens, UniProt P07949).
T9 construct: Kinases are expressed as either kinase domains or full length constructs; made in house
T9 sequence (P07949 29-1114): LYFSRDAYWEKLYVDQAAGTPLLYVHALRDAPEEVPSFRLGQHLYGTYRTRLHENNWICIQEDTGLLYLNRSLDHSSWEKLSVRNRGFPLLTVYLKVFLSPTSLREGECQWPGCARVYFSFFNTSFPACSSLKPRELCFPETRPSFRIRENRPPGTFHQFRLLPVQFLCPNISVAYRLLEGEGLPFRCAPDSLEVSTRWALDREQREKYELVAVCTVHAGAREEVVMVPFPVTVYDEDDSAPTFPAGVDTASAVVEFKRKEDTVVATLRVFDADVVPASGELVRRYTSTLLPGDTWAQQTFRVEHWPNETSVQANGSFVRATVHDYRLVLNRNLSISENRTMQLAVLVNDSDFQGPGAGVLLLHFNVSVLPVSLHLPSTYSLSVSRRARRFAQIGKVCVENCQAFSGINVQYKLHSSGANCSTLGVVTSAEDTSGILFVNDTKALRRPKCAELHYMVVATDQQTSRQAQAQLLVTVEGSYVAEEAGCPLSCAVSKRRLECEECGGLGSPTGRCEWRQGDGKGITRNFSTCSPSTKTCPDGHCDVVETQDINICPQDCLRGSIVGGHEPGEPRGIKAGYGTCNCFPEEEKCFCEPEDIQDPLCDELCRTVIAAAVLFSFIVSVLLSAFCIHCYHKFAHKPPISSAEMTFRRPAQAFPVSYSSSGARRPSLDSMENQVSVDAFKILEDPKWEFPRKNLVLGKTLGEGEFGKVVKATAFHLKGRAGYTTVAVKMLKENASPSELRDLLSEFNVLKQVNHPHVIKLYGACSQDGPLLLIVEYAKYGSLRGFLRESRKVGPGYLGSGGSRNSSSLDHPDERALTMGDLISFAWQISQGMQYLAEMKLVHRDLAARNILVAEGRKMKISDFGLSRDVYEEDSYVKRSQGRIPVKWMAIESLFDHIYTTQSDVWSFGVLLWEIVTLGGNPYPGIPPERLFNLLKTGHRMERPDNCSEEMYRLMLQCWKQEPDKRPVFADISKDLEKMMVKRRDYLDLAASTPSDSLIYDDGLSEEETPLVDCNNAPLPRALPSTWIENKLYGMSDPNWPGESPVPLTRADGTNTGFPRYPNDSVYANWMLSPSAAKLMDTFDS
Nature of the experiment: Kinase inhibition assay (33P transfer), Ret. The settings on record: Table 6, Ret-1 kinase inhibition class.

T5 sequence (P00533 25-1210, species assumed): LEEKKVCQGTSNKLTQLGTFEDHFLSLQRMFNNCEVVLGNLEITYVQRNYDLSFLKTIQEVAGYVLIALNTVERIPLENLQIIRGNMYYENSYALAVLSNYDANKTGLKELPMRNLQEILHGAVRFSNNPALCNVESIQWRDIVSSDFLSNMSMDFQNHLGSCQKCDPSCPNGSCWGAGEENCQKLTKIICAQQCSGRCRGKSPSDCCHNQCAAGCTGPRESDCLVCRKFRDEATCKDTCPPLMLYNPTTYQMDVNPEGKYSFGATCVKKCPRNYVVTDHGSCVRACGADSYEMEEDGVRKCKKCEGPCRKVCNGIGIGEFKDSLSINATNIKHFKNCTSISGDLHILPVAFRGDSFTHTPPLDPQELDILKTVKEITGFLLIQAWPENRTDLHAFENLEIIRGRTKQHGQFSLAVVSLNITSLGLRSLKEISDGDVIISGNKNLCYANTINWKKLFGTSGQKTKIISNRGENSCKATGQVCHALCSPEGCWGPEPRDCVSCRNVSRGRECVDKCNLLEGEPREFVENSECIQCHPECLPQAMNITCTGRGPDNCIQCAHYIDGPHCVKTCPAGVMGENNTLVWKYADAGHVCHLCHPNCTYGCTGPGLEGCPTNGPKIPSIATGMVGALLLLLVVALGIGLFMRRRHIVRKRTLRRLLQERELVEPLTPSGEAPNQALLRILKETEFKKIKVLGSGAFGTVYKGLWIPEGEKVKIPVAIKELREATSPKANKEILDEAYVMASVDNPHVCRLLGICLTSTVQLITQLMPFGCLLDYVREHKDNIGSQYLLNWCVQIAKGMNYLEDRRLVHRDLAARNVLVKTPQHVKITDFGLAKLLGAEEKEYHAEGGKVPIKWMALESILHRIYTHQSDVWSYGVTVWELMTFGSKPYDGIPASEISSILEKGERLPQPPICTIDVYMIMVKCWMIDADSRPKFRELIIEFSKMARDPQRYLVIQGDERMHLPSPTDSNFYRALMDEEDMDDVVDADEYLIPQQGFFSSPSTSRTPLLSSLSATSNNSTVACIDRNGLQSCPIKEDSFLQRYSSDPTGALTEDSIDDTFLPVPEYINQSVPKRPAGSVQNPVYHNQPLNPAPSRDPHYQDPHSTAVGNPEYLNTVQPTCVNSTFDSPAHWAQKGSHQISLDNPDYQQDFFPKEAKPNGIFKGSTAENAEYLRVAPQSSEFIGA
T1 sequence (P06239 whole entry, species assumed, the tested form may be a part): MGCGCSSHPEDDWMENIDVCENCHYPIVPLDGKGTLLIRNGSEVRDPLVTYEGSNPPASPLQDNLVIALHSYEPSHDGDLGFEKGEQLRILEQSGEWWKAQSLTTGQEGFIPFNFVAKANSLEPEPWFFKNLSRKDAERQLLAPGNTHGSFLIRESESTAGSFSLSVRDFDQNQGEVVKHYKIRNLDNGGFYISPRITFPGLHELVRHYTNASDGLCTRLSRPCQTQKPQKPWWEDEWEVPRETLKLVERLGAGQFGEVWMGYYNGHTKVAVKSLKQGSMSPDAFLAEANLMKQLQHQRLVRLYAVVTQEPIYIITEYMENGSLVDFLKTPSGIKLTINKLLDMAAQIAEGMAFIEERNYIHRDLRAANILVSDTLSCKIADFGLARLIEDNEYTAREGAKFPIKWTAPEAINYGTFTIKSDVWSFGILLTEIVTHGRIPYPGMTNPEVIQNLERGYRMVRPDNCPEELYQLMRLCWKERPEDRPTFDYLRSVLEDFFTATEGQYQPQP
T2 sequence (P07948 whole entry, species assumed, the tested form may be a part): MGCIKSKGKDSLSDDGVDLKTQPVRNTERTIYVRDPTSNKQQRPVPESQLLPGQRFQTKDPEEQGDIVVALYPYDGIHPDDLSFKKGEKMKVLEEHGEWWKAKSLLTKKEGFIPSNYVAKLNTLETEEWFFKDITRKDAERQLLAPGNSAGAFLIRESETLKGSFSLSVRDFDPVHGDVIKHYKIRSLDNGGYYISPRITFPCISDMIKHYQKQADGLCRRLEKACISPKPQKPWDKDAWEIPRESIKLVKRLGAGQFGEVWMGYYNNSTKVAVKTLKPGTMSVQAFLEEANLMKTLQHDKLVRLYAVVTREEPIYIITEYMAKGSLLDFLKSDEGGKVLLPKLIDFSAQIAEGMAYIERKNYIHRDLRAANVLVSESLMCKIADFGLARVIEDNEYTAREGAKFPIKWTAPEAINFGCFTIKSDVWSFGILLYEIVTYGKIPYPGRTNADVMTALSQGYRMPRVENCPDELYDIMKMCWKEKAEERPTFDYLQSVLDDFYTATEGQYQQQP
T8 sequence (P08631 whole entry, the tested form may be a part): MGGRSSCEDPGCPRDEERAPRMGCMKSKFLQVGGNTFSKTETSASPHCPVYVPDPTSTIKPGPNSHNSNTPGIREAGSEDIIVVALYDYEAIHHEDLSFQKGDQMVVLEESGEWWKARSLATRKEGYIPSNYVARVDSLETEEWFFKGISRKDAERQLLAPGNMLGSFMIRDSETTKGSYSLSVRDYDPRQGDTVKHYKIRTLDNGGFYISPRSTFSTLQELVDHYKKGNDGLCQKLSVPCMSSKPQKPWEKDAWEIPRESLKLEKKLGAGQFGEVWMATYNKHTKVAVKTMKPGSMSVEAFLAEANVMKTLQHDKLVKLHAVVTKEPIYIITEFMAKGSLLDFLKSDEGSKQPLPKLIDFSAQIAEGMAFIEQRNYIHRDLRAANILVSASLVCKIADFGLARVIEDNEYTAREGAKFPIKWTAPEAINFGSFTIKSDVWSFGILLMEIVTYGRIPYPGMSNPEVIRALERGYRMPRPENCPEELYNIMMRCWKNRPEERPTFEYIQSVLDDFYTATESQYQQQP

Turning to `COCCOc1ccc(Nc2ncnc(-n3c(N)nc4ccccc43)n2)cc1OC` [Compound 287], the IC50 at Lck is 0.982 to 5.89 µM; on Lyn, greater than 11 µM; on Src, greater than 11 µM; at Zap-70, greater than 11 µM; on EGFR it was 8.59 to 11 µM; at Tek it was greater than 11 µM. Also, the IC50 on EPHB4, at Hck-1 and on Ret-1 was greater than 11 µM each time.
Consider `COc1cc(Nc2ncnc(Nc3ccc(C)cc3F)n2)cc(OC)c1OC` [Compound 937], for which the IC50 was 1.04 to 6.23 µM on Lck; less than 1.04 µM on Lyn; 1.04 to 6.23 µM against Src; greater than 11.7 µM at Zap-70; less than 1.04 µM at EGFR; greater than 11.7 µM at Tek. Further, the IC50 on EPHB4 was 1.04 to 6.23 µM; on Hck-1, greater than 11.7 µM; at Ret-1, less than 1.04 µM.
Regarding `COc1cc(Nc2ncnc(Nc3ccc(C)cc3)n2)cc(OC)c1OC` [Compound 930], the IC50 is 1.09 to 6.53 µM on Lck; less than 1.09 µM against Lyn; less than 1.09 µM against Src; greater than 12.2 µM on Zap-70; less than 1.09 µM at EGFR; greater than 12.2 µM at Tek. Besides, the IC50 at EPHB4 is 6.53 to 9.53 µM; at Hck-1 it was 6.53 to 9.53 µM; against Ret-1 it was 1.09 to 6.53 µM.
With `COc1ccc(Sc2ncnc(Nc3cc(OC)c(OC)c(OC)c3)n2)cc1` [Compound 175], the IC50 was 0.999 to 5.99 µM on Lck; 5.99 to 8.74 µM at Lyn; 0.999 to 5.99 µM on Src; greater than 11.2 µM at Zap-70; greater than 11.2 µM on EGFR; 0.999 to 5.99 µM at Tek. Further, the IC50 is 0.999 to 5.99 µM on EPHB4, greater than 11.2 µM against Hck-1 and 5.99 to 8.74 µM on Ret-1.
As to `COCCOc1ccc(Nc2ncnc(-n3c(N)nc4ccccc43)n2)cc1OCCOC` [Compound 302], the IC50 on Lck, against Lyn, at Src, at Zap-70, at EGFR and at Tek was greater than 9.97 µM throughout. Further, the IC50 at EPHB4, against Hck-1 and on Ret-1 was greater than 9.97 µM throughout.
With `COC(=O)c1sccc1Nc1ncnc(Nc2cc(OC)c(OC)c(OC)c2)n1` [Compound 315], the IC50 at Lck was 8.38 to 10.8 µM; on Lyn, greater than 10.8 µM; against Src, greater than 10.8 µM; at Zap-70, 8.38 to 10.8 µM; on EGFR, greater than 10.8 µM; on Tek, greater than 10.8 µM. The IC50 at EPHB4, against Hck-1 and against Ret-1 was greater than 10.8 µM in each case.
With `COc1cc(Nc2ncnc(N3CCCc4ccccc43)n2)cc(OC)c1OC` [Compound 609], the IC50 was less than 1.02 µM at Lck; less than 1.02 µM against Lyn; less than 1.02 µM on Src; greater than 11.4 µM on Zap-70; less than 1.02 µM on EGFR; 8.9 to 11.4 µM at Tek. Also, the IC50 at EPHB4 was greater than 11.4 µM; on Hck-1, greater than 11.4 µM; against Ret-1, less than 1.02 µM.
For the compound `COc1cc(Nc2ncnc(Nc3ccc4c(ccn4Cc4ccccc4)c3)n2)cc(OC)c1OC` [Compound 178], the IC50 on Lck is 0.829 to 4.97 µM; on Lyn it was less than 0.829 µM; against Src, 0.829 to 4.97 µM; on Zap-70, 0.829 to 4.97 µM; on EGFR it was less than 0.829 µM; at Tek, 4.97 to 7.25 µM. For the same compound, the figures for the IC50 at EPHB4, against Hck-1 and at Ret-1 were 4.97 to 7.25 µM, greater than 9.33 µM and 4.97 to 7.25 µM, respectively.
On to `COc1cc(Nc2ncnc(-n3c(Nc4ccccc4)nc4ccccc43)n2)cc(OC)c1OC` [Compound 336], for which the IC50 at Lck is 0.852 to 5.11 µM; at Lyn it was 0.852 to 5.11 µM; against Src, greater than 9.58 µM; on Zap-70 it was greater than 9.58 µM; at EGFR it was greater than 9.58 µM; at Tek, greater than 9.58 µM. Further, the values for the IC50 on EPHB4, against Hck-1 and at Ret-1 were greater than 9.58 µM, greater than 9.58 µM and less than 0.852 µM, respectively.
Consider `COc1cc(Nc2ncnc(Nc3cc(-c4ccco4)n[nH]3)n2)cc(OC)c1OC` [Compound 308], for which the IC50 was 0.977 to 5.86 µM on Lck; less than 0.977 µM against Lyn; less than 0.977 µM at Src; greater than 11 µM at Zap-70; less than 0.977 µM at EGFR; 5.86 to 8.55 µM at Tek. For the same compound, the IC50 at EPHB4 is less than 0.977 µM; against Hck-1 it was 0.977 to 5.86 µM; at Ret-1, less than 0.977 µM.
Consider `COc1cc(Nc2ncnc(Nc3ccc(Br)cc3F)n2)cc(OC)c1OC` [Compound 41], for which the IC50 at Lck was 5.33 to 7.77 µM; on Lyn, less than 0.888 µM; against Src, 0.888 to 5.33 µM; on Zap-70 it was greater than 9.99 µM; on EGFR, less than 0.888 µM; at Tek it was 7.77 to 9.99 µM. The IC50 at EPHB4 was 0.888 to 5.33 µM; at Hck-1, greater than 9.99 µM; against Ret-1, less than 0.888 µM.
Consider `COc1cc(Nc2ncnc(-n3ccc4cc(Cl)ccc43)n2)cc(OC)c1OC` [Compound 198], for which the IC50 on Lck, against Lyn, against Src, on Zap-70, at EGFR and at Tek was greater than 10.9 µM in each case. Moreover, the IC50 on EPHB4, on Hck-1 and against Ret-1 was greater than 10.9 µM in each case.
Regarding `COc1cc(Nc2ncnc(N3c4ccc(F)cc4CCC3C)n2)cc(OC)c1OC` (stereo not drawn) [Compound 298], the IC50 at Lck was 0.94 to 5.64 µM; on Lyn, less than 0.94 µM; against Src, 0.94 to 5.64 µM; at Zap-70, 8.23 to 10.6 µM; at EGFR it was 0.94 to 5.64 µM; on Tek, 0.94 to 5.64 µM. Further, the IC50 on EPHB4 was 0.94 to 5.64 µM; against Hck-1, 0.94 to 5.64 µM; against Ret-1, less than 0.94 µM.
As to `COc1cc(Nc2ncnc(N3CCCC4CCCCC43)n2)cc(OC)c1OC` (stereo not drawn) [Compound 314], the IC50 is less than 1 µM at Lck; less than 1 µM against Lyn; 1 to 6.01 µM against Src; greater than 11.3 µM on Zap-70; less than 1 µM on EGFR; 1 to 6.01 µM on Tek. The values for the IC50 at EPHB4, at Hck-1 and against Ret-1 were greater than 11.3 µM, 6.01 to 8.76 µM and greater than 11.3 µM, respectively.
Consider `COc1cc2ccn(-c3ncnc(Nc4cc(OC)c(OC)c(OC)c4)n3)c2cc1OC` [Compound 239], for which the IC50 at Lck was greater than 10.3 µM; against Lyn it was greater than 10.3 µM; against Src it was greater than 10.3 µM; on Zap-70 it was greater than 10.3 µM; at EGFR, 8 to 10.3 µM; at Tek, greater than 10.3 µM. In addition, the IC50 on EPHB4, against Hck-1 and at Ret-1 was greater than 10.3 µM in each case.
